This test deals with His-mASPDH (mouse ASPDH) (Mus musculus, UniProt Q9DCQ2). Nature of the test: ITC, one-site model. It is filed as binding. A general note: In ITC the heat of successive injections is recorded.
Sequence of His-mASPDH (mouse ASPDH) (Q9DCQ2 whole entry): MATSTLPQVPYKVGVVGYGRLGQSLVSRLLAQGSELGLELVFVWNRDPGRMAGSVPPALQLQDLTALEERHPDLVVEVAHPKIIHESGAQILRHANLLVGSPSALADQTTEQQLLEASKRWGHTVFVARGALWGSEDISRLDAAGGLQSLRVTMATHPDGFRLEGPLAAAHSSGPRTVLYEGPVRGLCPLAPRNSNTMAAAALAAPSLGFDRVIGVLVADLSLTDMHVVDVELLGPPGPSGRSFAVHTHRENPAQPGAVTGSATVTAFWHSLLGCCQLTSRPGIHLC

A word on the Kd: it is a measure of binding affinity in units of concentration. Low values mean higher affinity, high ones lower affinity. For the compound `Nc1ncnc2c1ncn2[C@@H]1O[C@H](COP(=O)(O)OP(=O)(O)OC[C@H]2O[C@@H]([n+]3cccc(C(=O)O)c3)[C@H](O)[C@@H]2O)[C@@H](O)[C@H]1OP(=O)(O)O` [NAADP], binding was put at a Kd of 455 ± 231 nM.

Regarding `NC(=O)c1ccc[n+]([C@@H]2O[C@H](COP(=O)(O)OP(=O)(O)OC[C@H]3O[C@@H](n4cnc5c(N)ncnc54)[C@H](OP(=O)(O)O)[C@@H]3O)[C@@H](O)[C@H]2O)c1` [NADP], the Kd came out at 958 ± 203 nM.
